{"source": "paper PMC8880991", "about": "(eLife, 2022)", "key": {"[1]": {"tested_on": "wild-type mice", "test": "Blood glucose monitoring of overnight-fasted mice", "type": "in vivo, mouse", "conditions": "glibenclamide 40 mg/kg body weight, single intraperitoneal application; end of 2-hr observation period", "protocol": "We evaluated the blood glucose levels of tested mice (8–12 weeks of age) using a digital glucometer (Clarity Diagnostics, BG1000). Induced diabetic mice were tested daily starting from the day after the final administration of tamoxifen until their blood glucose levels reached above 600 mg/dl. Following overnight (16 hr) fasting, blood glucose monitoring and plasma collection were then performed using specified mouse lines at designated time points over a 2-hr observation period in the next morning. […] At each given time point, the glucose level of a blood drop obtained from the cut tail tip was measured twice using a glucometer. For any case where the level was above 600 mg/dl, the blood sample was diluted by an equal volume of the phosphate-buffer solution titrated to pH 7.3 before the glucose level was remeasured for two times. Additionally, four to five drops (~12 μl) of tail vein blood were collected at individual specified time points into a tube containing K2EDTA (1.5 mg/ml blood) and centrifuged at 2000 × g for 5 min at 4°C. 5 μl of the resulting plasma was frozen in liquid nitrogen, stored at −20°C, and assayed using a colorimetric insulin-detecting ELISA kit (CrystalChem, 90080) within a week. Mice were grouped according to genotypes. Using a previous study as reference ([Remedi et al., 2009]), we determined the number of mice for individual groups. […]"}, "[2]": {"tested_on": "β cells in isolated pancreatic islets from ^EndomKir6.2^V108E mice", "test": "Membrane potential (Vm), perforated whole-cell patch clamp", "type": "cell-based, mouse", "conditions": "glibenclamide; nominal glucose-free condition", "protocol": "(§1) Electrophysiological membrane potential (Vm) measurements from individual cells in isolated but intact islets cultured on glass coverslips were performed using the perforated whole-cell patch-clamp method as described ([Yang et al., 2021]). Wax-coated electrodes (G85150T, Warner) were back filled with the intracellular solution containing (in mM): 76 K2SO4, 10 KCl, 10 NaCl, 6 MgCl2, 30 mannitol, 30 HEPES, where pH was titrated to 7.2 at 35°C with N-methyl-d-glucamine (NMG). The tip of the pipette was filled with this solution and the remainder was back filled with the same solution plus β-escin (6 or 8 µM). The free Mg^2+ concentration of this solution, taking the divalent cation-chelating action of SO4^2− into consideration, is estimated to be about 2 mM. The extracellular solution contained (in mM): 135 NaCl, 4 KCl, 2 CaCl2, 2 MgCl2, 10 HEPES, where pH was titrated to 7.4 at 35°C with NMG. Glucose was added to this solution as required and the osmolarity was adjusted to ~300 mOsm with mannitol. All salts were from Millipore-Sigma. Using the solutions described above, the initial input resistance of the electrode was typically 4–8 MΩ. The electrophysiological recordings were performed under a continuous perfusion condition, 0.3–0.4 ml/min (Instech), at ~35°C (TC-124A and TC-344B Warner). Islets were equilibrated in the recording chamber for 10–15 min before measurements were made. Adequate whole-cell access was achieved typically within 5–10 min.\n(§2) The output of the patch-clamp amplifier (Axopatch 200B, Molecular Devices) was digitized at 2 kHz and stored for later analysis using Igor Pro (v8 or v9, Wavemetrics). The liquid junction potential has been subtracted from the results. To estimate the average Vm values under different conditions, the Vm traces were digitally Gaussian filtered at 0.1 Hz and the filtered data points in the last 50 s of a segment of interest were averaged. The filtered traces are superimposed on the illustrative original traces in the figures where appropriate. The variations in data values reflected both biological variability and technical errors (Figures 2D–F–6D–F). No data, which were successfully recorded over sufficient durations that allowed for adequate examination the membrane potential under the various specified conditions, were excluded."}, "[3]": {"tested_on": "β cells in isolated pancreatic islets from wild-type mice", "test": "Membrane potential (Vm), perforated whole-cell patch clamp", "type": "cell-based, mouse", "protocol": "as §1, §2"}, "[4]": {"tested_on": "^Rosa26mKir6.2^NDM-V108E mice", "test": "Plasma insulin assay (ELISA)", "type": "in vivo, mouse", "conditions": "glibenclamide 40 mg/kg, single bolus", "excerpt": "(§3) In ^Rosa26mKir6.2^NDM and ^Rosa26mKir6.2^NDM-V108E mice, the expression of mutant Kir6.2 activity occurred in the pancreas upon the excision of the Neo/WSS cassette by the tamoxifen-dependent Cre recombinase ([Remedi et al., 2009]). Exposure to tamoxifen permitted the translocation of Cre recombinase from the cytoplasm to the nucleus in order to perform the excision between loxP sites within the targeted Rosa26 locus. To induce the expression of mutant Kir6.2 activity and consequently the diabetic phenotype in these mutant mice (8–12 weeks of age), corn oil containing tamoxifen (75 mg/kg body weight; prepared as described below) was injected intraperitoneally for five consecutive days. Injection sites were sealed with a tissue adhesive (3M Vetbond) to prevent leakage of the injected liquid.\n(§4) We evaluated the blood glucose levels of tested mice (8–12 weeks of age) using a digital glucometer (Clarity Diagnostics, BG1000). Induced diabetic mice were tested daily starting from the day after the final administration of tamoxifen until their blood glucose levels reached above 600 mg/dl. […] At each given time point, the glucose level of a blood drop obtained from the cut tail tip was measured twice using a glucometer. […]"}, "[5]": {"tested_on": "^Rosa26mKir6.2^NDM-V108E mice", "test": "Blood glucose monitoring of overnight-fasted diabetic mice", "type": "in vivo, mouse", "conditions": "glibenclamide 40 mg/kg, single bolus", "excerpt": "as §3, §4"}, "[6]": {"tested_on": "isolated pancreatic islets of ^EndomKir6.2^V108E mice", "type": "cell-based, mouse", "protocol": "(§5) Pancreatic islets were isolated as previously described ([Doliba et al., 2017]; [Li et al., 2009]). For each experiment, one to four adult mice (8–12 weeks of age) were euthanized by exposing them to an overdose of isoflurane through inhalation and a subsequent cervical dislocation. Following a perfusion through the common bile duct with a Hank’s balanced salt solution (HBSS; GIBCO, 14175) containing collagenase XI (1–2 mg/ml, Millipore-Sigma, C7657) and 1 mM CaCl2, the pancreas was dissected and digested at 37°C for 5 or 15 min. After the digestion, the collagenase in the pancreas homogenate was removed through several washes with HBSS containing 0.3% (wt/vol) bovine serum albumin, and dissociated islets were then hand-picked into a recovery media RPMI1640 (GIBCO, 21870) with the following supplements: 10% fetal bovine serum, 2 mM GlutaMAX, 1 mM sodium pyruvate, penicillin–streptomycin, and 10 mM HEPES titrated to pH 7.4 with NaOH. For the perifusion assay, the digested pancreases samples were subject to a Ficoll gradient purification, and the islets in the enriched fraction were washed with the recovery solution before handpicking islets. During this process, the samples from four mice were pooled to ensure a sufficient number of islets were used to perform assays under compared conditions with the same population in each independent round of experiment. The handpicked islets were placed in 5% CO2 incubator at 37°C to rest overnight prior to the static incubation assay or 2 days prior to the perifusion assay.\nFor each perifusion experiment ([Doliba et al., 2017]), pancreatic islets from four mice (8–12 weeks of age) were used in the following manner. […] At the end of each experiment, the islets were recovered and placed in acidified ethanol to extract total insulin content as described above. Insulin in the samples was assayed using an insulin-specific radioimmunoassay kit (RI-13K, Millipore). For each condition, the study was performed three to six times. […] No experiments were excluded."}, "[7]": {"tested_on": "isolated pancreatic islets of ^EndomKir6.2^V108E mice", "test": "Static incubation assay of GSIS with diazoxide", "type": "cell-based, mouse", "conditions": "100 µM diazoxide; for Amount of insulin (secreted/total), Mean: 0 µM SpTx1, mean of 6 mice", "protocol": "as §5\nFor insulin secretion in each independent static incubation assays, pancreatic islets from one mouse (8–12 weeks of age) were used as follows. […] Washed islets were equilibrated in the final wash step for 1 hr at 5% CO2 and 37°C. Using a previous study as reference ([Remedi et al., 2009]) and on the basis of the amount of insulin secretion and the sensitivity of insulin assay, we chose to use 5–10 islets in each assay. […]"}}, "note": "Entries after “also recorded” stand apart in the source; their conditions may differ. Read-outs that look alike come from different tables or passages of the source.", "data": [{"smiles": "COc1ccc(Cl)cc1C(=O)NCCc1ccc(S(=O)(=O)NC(=O)NC2CCCCC2)cc1", "note": "[glibenclamide]", "values": [{"measurement": "effect on blood glucose level", "setting": "[1]", "value": "lowered the blood glucose level of wild-type mice by half"}, {"measurement": "effect on Vm", "setting": "[2]", "value": "elicited action potentials"}, {"measurement": "Vm", "setting": "[3]; 0.2 uM Glibenclamide in 5 mM Glucose, islet 1", "value": -0.05335, "unit": "V"}, {"measurement": "Vm", "setting": "[3]; 0.2 uM Glibenclamide in 5 mM Glucose, islet 2", "value": -0.03306, "unit": "V"}, {"measurement": "Vm", "setting": "[3]; 0.2 uM Glibenclamide in 5 mM Glucose, islet 3", "value": -0.0403, "unit": "V"}, {"measurement": "Vm", "setting": "[3]; 0.4 uM Glibenclamide in 0 mM Glucose, islet 1", "value": -0.05043, "unit": "V"}, {"measurement": "Vm", "setting": "[3]; 0.4 uM Glibenclamide in 0 mM Glucose, islet 2", "value": -0.02061, "unit": "V"}, {"measurement": "Vm", "setting": "[3]; 0.4 uM Glibenclamide in 0 mM Glucose, islet 3", "value": -0.04501, "unit": "V"}, {"measurement": "Vm", "setting": "[3]; 0.4 uM Glibenclamide in 0 mM Glucose, islet 4", "value": -0.03684, "unit": "V"}, {"measurement": "Vm", "setting": "[3]; 0.4 uM Glibenclamide in 0 mM Glucose, islet 5", "value": -0.05294, "unit": "V"}, {"measurement": "Vm", "setting": "[3]; 0.4 uM Glibenclamide in 0 mM Glucose, islet 6", "value": -0.05777, "unit": "V"}, {"measurement": "Vm", "setting": "[3]; 0.4 uM Glibenclamide in 8 mM Glucose, islet 1", "value": -0.04669, "unit": "V"}, {"measurement": "Vm", "setting": "[3]; 0.4 uM Glibenclamide in 8 mM Glucose, islet 2", "value": -0.04799, "unit": "V"}, {"measurement": "Vm", "setting": "[3]; 0.4 uM Glibenclamide in 8 mM Glucose, islet 3", "value": -0.04272, "unit": "V"}, {"measurement": "Vm", "setting": "[3]; 0.4 uM Glibenclamide in 8 mM Glucose, islet 5", "value": -0.05311, "unit": "V"}, {"measurement": "Vm", "setting": "[3]; 0.4 uM Glibenclamide in 8 mM Glucose, islet 6", "value": -0.0321, "unit": "V"}, {"measurement": "effect on Vm", "setting": "[3]; glibenclamide 0.4 µM, glucose 0 mM", "value": "dramatically depolarized Vm and triggered a train of action potentials"}, {"measurement": "effect on plasma insulin", "setting": "[4]", "value": "nor caused a rise of insulin in the plasma"}, {"measurement": "effect on elevated blood glucose level", "setting": "[5]", "value": "neither markedly lowered the elevated blood glucose level"}, {"measurement": "insulin secretion after removal of inhibitor and return to 3 mM glucose", "setting": "[6]; 1 μM glibenclamide", "value": "the elevated insulin secretion largely persisted"}, {"measurement": "effect on insulin secretion", "setting": "[6]; 1 μM glibenclamide with glucose raised from 3 to 10 mM", "value": "yielded insulin secretion much greater than that from elevated glucose alone"}, {"measurement": "insulin secretion in nonstimulating glucose (primary secretagogue)", "setting": "[6]; 1 μM glibenclamide, 3 mM glucose, added 10 min before raising glucose", "value": "triggered sizable secretion of insulin; also recorded: stimulated sizable secretion of insulin"}, {"measurement": "effect on insulin secretion", "setting": "[6]; 1 μM glibenclamide, 16.7 mM glucose", "value": "caused much greater secretion of insulin than it did in the absence of glibenclamide"}]}, {"smiles": "CC1=NS(=O)(=O)c2cc(Cl)ccc2N1", "note": "[diazoxide]", "values": [{"measurement": "effect on insulin secretion", "setting": "[7]; 16.7 mM glucose", "value": "lowered the insulin secretion in 16.7 mM glucose to the baseline level"}, {"measurement": "Amount of insulin (secreted/total), Mean", "setting": "[7]; 3 mM glucose", "value": 0.2568}, {"measurement": "Amount of insulin (secreted/total), Mean", "setting": "[7]; 16.7 mM glucose", "value": 0.2327}]}]}
